Data on 25 compounds can be found in patent publication US12577226B2, “Compounds for treating Huntington's disease” (PTC THERAPEUTICS, INC., priority 2019, dated 2026).

What is called IC50 is the concentration that gives 50% inhibition.

The test system of the assay is Endogenous Huntingtin Protein (capture with MW1 (expanded polyglutamine) or MAB2166 antibody). In words: Endogenous Huntingtin Protein Assay (ELISA-based Meso Scale Discovery electrochemiluminescence assay). Type of assay: cell-based. Particulars: MSD electrochemiluminescence platform. On the procedure:
Compounds of Formula (I), Formula (II), or Formula (III) were tested using the Meso Scale Discovery (MSD) Assay provided in International Application No. PCT/US2016/066042, filed on Dec. 11, 2016 and claiming priority to U.S. Provisional Application U.S. 62/265,652 filed on Dec. 10, 2015, the entire contents of which are incorporated herein by reference.
The Endogenous Huntingtin Protein assay used in Example 1 was developed using the ELISA-based MSD electrochemiluminescence assay platform.
Meso Scale Discovery (MSD) 96-well or 384-well plates were coated overnight at 4° C. with MW1 (expanded polyglutamine) or MAB2166 monoclonal antibody (for capture) at a concentration of 1 μg/mL in PBS (30 μL per well). Plates were then washed three times with 300 μL wash buffer (0.05% Tween-20 in PBS) and blocked (100 μL blocking buffer; 5% BSA in PBS) for 4-5 hours at room temperature with rotational shaking and then washed three times with wash buffer.
Samples (25 μL) were transferred to the antibody-coated MSD plate and incubated overnight at 4° C. After removal of the lysates, the plate was washed three times with wash buffer, and 25 μL of #5656S (Cell signaling; rabbit monoclonal) secondary antibody (diluted to 0.25 μg/mL in 0.05% Tween-20 in blocking buffer) was added to each well and incubated with shaking for 1 Hour at room temperature. Following incubation with the secondary antibody, the wells were rinsed with wash buffer after which 25 μL of goat anti-rabbit SULFO TAG secondary detection antibody (required aspect of the MSD system) (diluted to 0.25 μg/mL in 0.05% Tween-20 in blocking buffer) was added to each well and incubated with shaking for 1 hour at room temperature. After rinsing three times with wash buffer, 150 μL of read buffer T with surfactant (MSD) were added to each empty well, and the plate was imaged on a SI 6000 imager (MSD) according to manufacturers' instructions provided for 96- or 384-well plates.
In general terms: ELISA stands for enzyme-linked immunosorbent assay.

In the case of `Cn1ccc(-c2cnc(-c3ccc(OC4CC(C)(C)NC(C)(C)C4)nn3)c(O)c2)n1` [Compound 4, 5-(1-methyl-1H-pyrazol-3-yl)-2-{6-[(2,2,6,6-tetramethylpiperidin-4-yl)oxy]pyridazin-3-yl}pyridin-3-ol], the IC50 is ≤ 100 nM.
With `CC1(C)CC(Oc2ccc(-c3ncc(-n4nccn4)cc3O)nn2)CC2(CC2)N1` (stereo not shown) [Compound 21, 2-{6-[(5,5-dimethyl-4-azaspiro[2.5]octan-7-yl)oxy]pyridazin-3-yl}-5-(2H-1,2,3-triazol-2-yl)pyridin-3-ol], the IC50 is ≤ 100 nM.
Next, `COc1cc(-c2cnc(-c3ccc(OC4CC(C)(C)NC(C)(C)C4)nn3)c(O)c2)nn2cc(C)nc12` [Compound 81, 5-(8-methoxy-2-methylimidazo[1,2-b]pyridazin-6-yl)-2-{6-[(2,2,6,6-tetramethylpiperidin-4-yl)oxy]pyridazin-3-yl}pyridin-3-ol]: ≤ 100 nM; `C[C@@H]1CN(c2ccc(-c3ncc(-c4cc(F)c5nn(C)cc5c4)cc3O)nn2)CCN1` [Compound 104, 5-(7-fluoro-2-methyl-2H-indazol-5-yl)-2-{6-[(3R)-3-methylpiperazin-1-yl]pyridazin-3-yl}pyridin-3-ol]: ≤ 100 nM.
In the case of `CC1(C)CC(Oc2ccc(-c3ncc(-c4ncco4)cc3O)nn2)CC(C)(C)N1` [Compound 10, 5-(1,3-oxazol-2-yl)-2-{6-[(2,2,6,6-tetramethylpiperidin-4-yl)oxy]pyridazin-3-yl}pyridin-3-ol], the IC50 was ≤ 100 nM.
Next, `CN(c1ccc(-c2ncc(-c3cc(F)c4nn(C)cc4c3)cc2O)nn1)C1CC(C)(C)NC2(CC2)C1` (stereo not shown) [Compound 64, 2-{6-[(5,5-dimethyl-4-azaspiro[2.5]octan-7-yl)(methyl)amino]pyridazin-3-yl}-5-(7-fluoro-2-methyl-2H-indazol-5-yl)pyridin-3-ol]: ≤ 100 nM; `Cn1nc2cc(-c3cnc(-c4cnc(N5CCN[C@@H](C6CC6)C5)nn4)c(O)c3)cnc2n1` [Compound 157, 2-{3-[(3S)-3-cyclopropylpiperazin-1-yl]-1,2,4-triazin-6-yl}-5-(2-methyl-2H-[1,2,3]triazolo[4,5-b]pyridin-6-yl)pyridin-3-ol]: ≤ 100 nM.
In the case of `Cc1cn2cc(-c3cnc(-c4ccc(N5CC6CC5CN6)nn4)c(O)c3)cnc2n1` (stereo not shown) [Compound 116, 2-[6-(2,5-diazabicyclo[2.2.1]heptan-2-yl)pyridazin-3-yl]-5-(2-methylimidazo[1,2-a]pyrimidin-6-yl)pyridin-3-ol], the IC50 is 500 to 1000 nM.
Next, “5-(2,8-dimethylimidazo[1,2-b]pyridazin-6-yl)-2-(6-{[(3R,4S)-3-fluoro-2,2,6,6-tetramethylpiperidin-4-yl]oxy}pyridazin-3-yl)pyridin-3-ol and 5-(2,8-dimethylimidazo[1,2-b]pyridazin-6-yl)-2-(6-{[(3S,4R)-3-fluoro-2,2,6,6-tetramethylpiperidin-4-yl]oxy}pyridazin-3-yl)pyridin-3-ol [Compound 47]”: ≤ 100 nM; “5-[(5-methylpyrazin-2-yl)amino]-2-{6-[(3R)-3-(propan-2-yl)piperazin-1-yl]pyridazin-3-yl}pyridin-3-ol and 5-[(5-methylpyrazin-2-yl)amino]-2-{6-[(3S)-3-(propan-2-yl)piperazin-1-yl]pyridazin-3-yl}pyridin-3-ol [Compound 133]”: ≤ 100 nM.
Next, `CC1(C)CC(Oc2ccc(-c3ncc(-c4cn[nH]c4F)cc3O)nn2)CC2(CC2)N1` (stereo not shown) [Compound 26, 2-{6-[(5,5-dimethyl-4-azaspiro[2.5]octan-7-yl)oxy]pyridazin-3-yl}-5-(5-fluoro-1H-pyrazol-4-yl)pyridin-3-ol]: ≤ 100 nM; `[2H]C([2H])([2H])n1cc(-c2cnc(-c3cnc(N(C)C4CC(C)(C)NC(C)(C)C4)nn3)c(O)c2)cn1` [Compound 142, 5-[1-(^2H3)methyl-1H-pyrazol-4-yl]-2-{3-[methyl(2,2,6,6-tetramethylpiperidin-4-yl)amino]-1,2,4-triazin-6-yl}pyridin-3-ol]: ≤ 100 nM.
Consider `C[C@@H]1CN(c2cnc(-c3ncc(-c4cc(F)c5nn(C)cc5c4)cc3O)nn2)C[C@H](C)N1` [Compound 164, 2-{6-[(3R,5S)-3,5-dimethylpiperazin-1-yl]-1,2,4-triazin-3-yl}-5-(7-fluoro-2-methyl-2H-indazol-5-yl)pyridin-3-ol and 2-{6-[(3S,5R)-3,5-dimethylpiperazin-1-yl]-1,2,4-triazin-3-yl}-5-(7-fluoro-2-methyl-2H-indazol-5-yl)pyridin-3-ol], for which the IC50 was in the range of 100 to 500 nM.
Next, “2-{6-[(3R,5R)-3,5-dimethylpiperazin-1-yl]pyridazin-3-yl}-5-(7-fluoro-2-methyl-2H-indazol-5-yl)pyridin-3-ol and 2-{6-[(3S,5R)-3,5-dimethylpiperazin-1-yl]pyridazin-3-yl}-5-(7-fluoro-2-methyl-2H-indazol-5-yl)pyridin-3-ol [Compound 106]”: ≤ 100 nM.
With `CC1(C)CC(Oc2ccc(-c3ncc(-n4nccn4)cc3O)nn2)CC(C)(C)N1` [Compound 20, 2-{6-[(2,2,6,6-tetramethylpiperidin-4-yl)oxy]pyridazin-3-yl}-5-(2H-1,2,3-triazol-2-yl)pyridin-3-ol], the IC50 was ≤ 100 nM.
The figure for `CN(c1ccc(-c2ncc(-c3cn[nH]c3)cc2O)nn1)C1CC(C)(C)NC(C)(C)C1` [Compound 2, 2-{6-[methyl(2,2,6,6-tetramethylpiperidin-4-yl)amino]pyridazin-3-yl}-5-(1H-pyrazol-4-yl)pyridin-3-ol] is ≤ 100 nM.
The figure for `Cn1ccc(-c2cnc(-c3ccc(O[C@H]4CC(C)(C)NC(C)(C)[C@H]4F)nn3)c(O)c2)n1` (single isomer, unassigned) [Compound 7, 2-(6-{[(3R,4S)-3-fluoro-2,2,6,6-tetramethylpiperidin-4-yl]oxy}pyridazin-3-yl)-5-(1-methyl-1H-pyrazol-3-yl)pyridin-3-ol or 2-(6-{[(3S,4R)-3-fluoro-2,2,6,6-tetramethylpiperidin-4-yl]oxy}pyridazin-3-yl)-5-(1-methyl-1H-pyrazol-3-yl)pyridin-3-ol] is 100 to 500 nM; for `CC1(C)CN(c2ccc(-c3ncc(-c4cn[nH]c4)cc3O)nn2)CC(C)(C)N1` [Compound 88, 5-(1H-pyrazol-4-yl)-2-[6-(3,3,5,5-tetramethylpiperazin-1-yl)pyridazin-3-yl]pyridin-3-ol] it is 100 to 500 nM.
Next, `CC(C)(C)NC1CCN(c2ncc(-c3ncc(-c4cn[nH]c4)cc3O)nn2)C1` (stereo not shown) [Compound 136, 2-{3-[3-(tert-butylamino)pyrrolidin-1-yl]-1,2,4-triazin-6-yl}-5-(1H-pyrazol-4-yl)pyridin-3-ol]: ≤ 100 nM; “5-[(2-methylpyrimidin-5-yl)amino]-2-{6-[(3R)-3-(propan-2-yl)piperazin-1-yl]pyridazin-3-yl}pyridin-3-ol and 5-[(2-methylpyrimidin-5-yl)amino]-2-{6-[(3S)-3-(propan-2-yl)piperazin-1-yl]pyridazin-3-yl}pyridin-3-ol [Compound 134]”: 500 to 1000 nM.
As to `Cc1cn2nc(-c3cnc(-c4ccc(O[C@H]5CC(C)(C)NC(C)(C)[C@H]5F)nn4)c(O)c3)cc(C)c2n1` [Compound 38, 5-(2,8-dimethylimidazo[1,2-b]pyridazin-6-yl)-2-(6-{ [(3R,4S)-3-fluoro-2,2,6,6-tetramethylpiperidin-4-yl]oxy}pyridazin-3-yl)pyridin-3-ol or 5-(2,8-dimethylimidazo[1,2-b]pyridazin-6-yl)-2-(6-{ [(3S,4R)-3-fluoro-2,2,6,6-tetramethylpiperidin-4-yl]oxy}pyridazin-3-yl)pyridin-3-ol], the IC50 was ≤ 100 nM.
Consider `CC1(C)C[C@@H](Oc2ccc(-c3ncc(-c4cn[nH]c4F)cc3O)nn2)[C@@H](F)C(C)(C)N1` [Compound 40, 5-(5-fluoro-1H-pyrazol-4-yl)-2-(6-{[(3S,4R)-3-fluoro-2,2,6,6-tetramethylpiperidin-4-yl]oxy}pyridazin-3-yl)pyridin-3-ol], for which the IC50 is ≤ 100 nM.
Next, `Cc1cnc(Nc2cnc(-c3cnc(N4CCN[C@@H](C(C)C)C4)nn3)c(O)c2)cn1` [Compound 154, 5-[(5-methylpyrazin-2-yl)amino]-2-[3-[(3S)-3-(propan-2-yl)piperazin-1-yl]-1,2,4-triazin-6-yl}pyridin-3-ol]: ≤ 100 nM; “2-(3-{[(3R,4R)-3-fluoro-2,2,6,6-tetramethylpiperidin-4-yl]amino}-1,2,4-triazin-6-yl)-5-[1-(^2H3)methyl-1H-pyrazol-4-yl]pyridin-3-ol and 2-(3-{[(3S,4S)-3-fluoro-2,2,6,6-tetramethylpiperidin-4-yl]amino}-1,2,4-triazin-6-yl)-5-[1-(^2H3)methyl-1H-pyrazol-4-yl]pyridin-3-ol [Compound 140]”: ≤ 100 nM.
On to `CC1(C)CC(Oc2ncc(-c3ncc(-c4cn[nH]c4)cc3O)nn2)CC(C)(C)N1` [Compound 141, 5-(1H-pyrazol-4-yl)-2-{3-[(2,2,6,6-tetramethylpiperidin-4-yl)oxy]-1,2,4-triazin-6-yl}pyridin-3-ol], for which the IC50 was 500 to 1000 nM.
